Data taken from patent US6287813A, “Antibiotic-based gene regulation system” (Cistronics Cell Technology GmbH, priority 1999, dated 2001).

Legend:
[1] = molecular target: T1, PIT/PPIR system (Streptomyces coelicolor, UniProt Q9ADN3); assay: SEAP reporter assay, CHO-TWIN clones transfected with pMF172 (PPIR-SEAP); type: cell-based; details: for activity at 2 µg/mL / activity at 10 µg/mL: 48 h, CHO-TWIN1108 + pMF172, crossregulation, read-out: SEAP Production (%); for activity at 10 µg/mL: 10 μg/ml
T1 construct: pMF156/pTWIN in CHO cells, PPIR-SEAP or GFP reporter
T1 sequence (Q9ADN3 1-252): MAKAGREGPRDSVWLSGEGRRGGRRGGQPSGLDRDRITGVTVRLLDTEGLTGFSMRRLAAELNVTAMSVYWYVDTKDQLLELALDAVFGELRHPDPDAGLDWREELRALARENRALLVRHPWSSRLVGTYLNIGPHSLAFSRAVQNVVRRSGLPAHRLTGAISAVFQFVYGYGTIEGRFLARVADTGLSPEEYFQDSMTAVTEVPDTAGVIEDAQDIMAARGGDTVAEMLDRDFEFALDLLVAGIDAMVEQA
Text: (§1) pTWIN contains both PIT and tTA in a PSV40 -driven dicistronic configuration. For construction of pTWIN, PIT was first transferred from pMF156 as an EcoRI/HindIII fragment to the corresponding sites of pSBC-1 (EcoRI/HindIII; resulting in pMF167) before the PIT expression unit could be fused to the tTA expression unit contained on pSBC2-tTA (Fussenegger et al., 1997, supra) via SspI/NotI sites. Thus, pTWIN contains the dicistronic PSV40 -PIT-IRES-tTA-pA expression cassette.
(§2) Chinese hamster ovary cells (CHO-K1, ATCC: CCL 61), Baby hamster kidney cells (BHK-21, ATCC: CRL-8544), and HeLa cells (ATCC: CRL-7923) as well as stable cell lines CHO-PIT1, CHO-PIT2, CHO-TWIN195, CHO-TWIN1108 and CHO-PIT1-SEAP were cultured as described before (Fussenegger et al., 1998, Nat. Biotechnol. 16,468-472) in the presence of appropriate antibiotics: G418 400 μg/ml; zeocin 100 μg/ml. Optimized CaPO4 protocols were used for high efficiency transient transfection of all cell lines (id). Transient transfected cells were routinely analyzed after 48 h for GFP or SEAP expression using fluorescence microscopy and p-nitrophenolphosphate-based light absorbance timecourse, respectively, as described before (Fussenegger et al., 1998, Nat. Biotechnol. 16, 468-472; Berger et al., 1988, Gene 66, 1-10 b). For construction of stable CHO-PIT and CHO-TWIN cell lines, CHO-K1 was cotransfected either with pMF156 or pTWIN1 and pSV2neo carrying the G418 resistance gene. CHO-PIT1-SEAP was constructed by cotransfection of pMF172 and pZeoSV2 (Invitrogen). For assessment of dose-response characteristics of PPIR -regulated gene expression, CHO-PIT1-SEAP were cultured at cell densities of 150,000/ml for 48 at various PI concentrations. The mixed populations were cloned using FACS-mediated single-cell-sorting (FACStar^Plus; Beckton Dickinson). Gel retardation assay were performed as described (Salah-Bey et al., 1995, supra) using Pip purified from an overproducing strain of E. coli. Pip (0.02 pmol) was titrated with a range of antibiotic concentrations in a reaction volume of 20 μl. Protein solutions were pre-incubated at room temperature for 15 min. in the absence or presence of PI or its derivative quinupristin in a buffer containing 10 mM Tris (pH 7.8), 10 mM MgCl2, 300 mM NaCl, 2 mM DTT and 10% glycerol. An EcoRI-HindII PPTR fragment (0.02 pmol) containing three Pip binding sites (radiolabelled using α-^32 P)dATP was added and incubated for 15 min. To minimize nonspecific protein binding and increase protein stability, 2 μg of poly dIdC and 20 μg BSA were included in the incubation mix. Protein-DNA complexes were separated on 5% polyacrylamide,TBE gels and visualized by autoradiography.
(§3) CHO-TWIN195 and CHO-TWIN1108 were transfected under identical conditions with the isogenic plasmids containing the SEAP gene under control of the tTA-activated promoter PhCMV*-1 (pMF111) or the PIT-activated promoter PPIR (pMF172). Transfected cells were grown for 48 h in the presence or absence of either antibiotic prior to assay of SEAP activity.
(§4) Table 6: Comparison of the regulation performance of streptogramin- (PI and virginiamycin; VIR) and tetracycline-based gene regulation systems. The two cell clones CHO-TWIN195 and CHO-TWIN1108 containing both pristinamycin- and tetracycline-dependent transactivators were transfected with either the streptogramin-responsive or the TET-responsive SEAP reporter plasmids pMF172 (PPIR -SEAP) and pMF111 (PhCMV*-1 -SEAP), respectively, and the relative SEAP production was assessed. SEAP production values are normalized by SEAP activities under the antibiotic-free, active promoter conditions as follows: pMF172 in CHO-TWIN195:1.7 mU/ml; in CHO-TWIN1108 : 1.8 mU/ml. pMF111 in CHO-TWIN195 : 18.6 mU/ml; in CHO-TWIN1108 : 19.2 mU/ml.
(§5) Table 7: Compatibility of the streptogramin- and tetracycline-based gene regulation systems. Crossregulation of pristinamycin (PI) and the tetracyclines doxycycline (DOX) and tetracycline (TET). […]

[2] = molecular target: T2, TET-responsive system (tTA/PhCMV*-1) (Escherichia coli, UniProt P04483); assay: SEAP reporter assay, CHO-TWIN clones transfected with pMF111 (PhCMV*-1-SEAP); type: cell-based; details: for SEAP Production (%): 48 h, no inducer = 100
T2 construct: expressed in transfected cells; host or cells: CHO-K1 clones CHO-TWIN195 and CHO-TWIN1108 (pTWIN1)
Text: as §1, §2, §3, §4, §5

[3] = molecular target: T1, PIT/PPIR system; assay: SEAP reporter assay, CHO-K1 cotransfected with pMF156 (PIT) and pMF172 (PPIR-SEAP); type: cell-based
Procedure: PIT, the fusion protein of Pip and the VP16 C-terminal transactivation domain of Herpes simplex (Triezenberg et al., 1988, Genes Dev. 2, 718-729) was constructed by amplifying the S. coelicolor Pip from pGemT::Epip4 with oligos:
as §2
Five different sources of pristinamycin were used: The two therapeutic forms Pyostacin™ and Synercid™, pristinamycin discs, and the single compounds pristinamycin I (PI) and pristinamycin II (PII). Pyostacin™ pills (500 mg) were ground in a mortar and solubilized in DMSO or water at a stock concentration of 50 mg/ml. Synercid™ (RP 59500; Lot Nr. CB06253) was provided by Aventis in injection-ready vials containing 500 mg lyophilized antibiotic which was reconstituted in 5 ml of 5% glucose solution and frozen at -20° C. Individual pristinamycin compounds PI and PII (identical to virginiamycin M1 (VM1); Sigma ref. V2753) were solubilized in DMSO at a concentration of 50 mg/ml and kept at -20° C. Antibiotic discs containing 15 μg pristinamycin or virginiamycin (bioMerieux, ref. 54552; bioMerieux, ref. 54612) were soaked in 1 ml cell culture medium at 4i C for up to 24 h. […] The concentration of individual streptogramin components was calculated based on their fixed 70:30 ratio (w/w; PII/VM1 /dalfopristin: PI/VS1 /quinupristin). […]

[4] = molecular target: T3, Pip/PPTR (Streptomyces coelicolor, UniProt Q9ADN3); assay: Gel retardation assay of Pip/PPTR interaction; type: binding; details: Pip 0.2 pmol titrated with 50 pmol to 0.01 pmol antibiotic
T3 construct: gel retardation with ptr promoter DNA (PPTR) of S. pristinaespiralis
T3 sequence (Q9ADN3 1-252): T1 sequence (Q9ADN3 1-252)
Text: FIG. 1: Gel retardation assay showing Pip/PPTR interaction. PPTR of S. pristinaespiralis contains 3 dyad symmetrical binding sites (lane A; PPTR in the absence of Pip) all of which are saturated at relatively large amounts of purified Pip (0.4 pmol; […]) resulting in a single shifted band. Smaller amounts of Pip (0.02 pmol) presented an intermediate situation in which all possible permutations of site occupancy are represented in three distinct retarded bands (lane C). Pip (0.2 pmol lanes D-M) was titrated with a range of PI from 50 pmol to 0.01 pmol (lanes D-H; D: 50 pmol; E: 10 pmol; F: 1 pmol; G: 0.1 pmol; H: 0.01 pmol). […]
Chinese hamster ovary cells (CHO-K1, ATCC: CCL 61), Baby hamster kidney cells (BHK-21, ATCC: CRL-8544), and HeLa cells (ATCC: CRL-7923) as well as stable cell lines CHO-PIT1, CHO-PIT2, CHO-TWIN195, CHO-TWIN1108 and CHO-PIT1-SEAP were cultured as described before (Fussenegger et al., 1998, Nat. Biotechnol. 16,468-472) in the presence of appropriate antibiotics: G418 400 μg/ml; zeocin 100 μg/ml. […] Transient transfected cells were routinely analyzed after 48 h for GFP or SEAP expression using fluorescence microscopy and p-nitrophenolphosphate-based light absorbance timecourse, respectively, as described before (Fussenegger et al., 1998, Nat. Biotechnol. 16, 468-472; Berger et al., 1988, Gene 66, 1-10 b). […]

T2 sequence (P04483 whole entry, added parts left off): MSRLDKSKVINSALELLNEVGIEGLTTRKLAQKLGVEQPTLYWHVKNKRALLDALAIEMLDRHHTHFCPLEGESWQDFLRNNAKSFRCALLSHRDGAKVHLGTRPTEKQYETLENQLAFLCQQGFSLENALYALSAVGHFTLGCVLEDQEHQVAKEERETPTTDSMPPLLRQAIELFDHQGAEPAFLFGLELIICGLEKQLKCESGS

## CN(C)[C@@H]1C(=O)C(C(N)=O)=C(O)[C@@]2(O)C(=O)C3=C(O)c4c(O)cccc4[C@@](C)(O)[C@H]3C[C@@H]12 [TET, tetracycline]
[1]; 2 μg/ml, read-out: Repressive effect on the PIT/PPIR system
  inhibition at 2 µg/mL: 17%
[1]; 2 μg/ml
  activity at 2 µg/mL: 87.7 ± 1.76%
[1]
  activity at 10 µg/mL: 57.5 ± 5%
[2]; CHO-TWIN195 + pMF111
  Induction factor (IF; ratio of maximal expression level to antibiotic-repressed expression level): 12
  SEAP Production (%): 8.57 ± 0.37%
[2]; CHO-TWIN1108 + pMF111, 2880 min
  Induction factor (fold downregulation of SEAP): 13 fold
[2]; CHO-TWIN1108 + pMF111
  SEAP Production (%): 7.56 ± 0.01%

## CC1=CC(O)CC(=O)Cc2nc(co2)C(=O)N2CCC=C2C(=O)OC(C(C)C)C(C)C=CC(=O)NCC=C1 (stereo not drawn) [PII, pristinamycin II]
[3]; CHO-K1, 2 μg/ml
  Downregulation of PIT/PPIR-mediated SEAP expression: did not display any significant repression activity
[3]; CHO-K1, inducer 2 μg/ml, assayed 48 hr later, no inducer = 100, read-out: SEAP Production (%)
  activity at 2 µg/mL: 96.3 ± 3.2%

## CC[C@H]1NC(=O)[C@@H](NC(=O)c2ncccc2O)[C@@H](C)OC(=O)[C@H](c2ccccc2)NC(=O)[C@@H]2CC(=O)[C@H](CS[C@@H]3CN4CCC3CC4)CN2C(=O)[C@H](Cc2ccc(N(C)C)cc2)N(C)C(=O)[C@@H]2CCCN2C1=O (stereo in doubt) [quinupristin]
[4]
  Release of Pip from PPTR: only partial release

## C[C@H]1c2cccc(O)c2C(O)=C2C(=O)[C@]3(O)C(O)=C(C(N)=O)C(=O)[C@@H](N(C)C)[C@@H]3[C@@H](O)[C@@H]21 [DOX, doxycycline]
[1]; 2 μg/ml
  activity at 2 µg/mL: 77 ± 6.9%
[1]
  activity at 10 µg/mL: 50.5 ± 7.9%
